# Laboratory results taken from patent publication US11148998B2, “Dimethyl-nonatetraenyl-trimethyl-cyclohexyl compounds and uses thereof” (The Regents of the University of Michigan, priority 2017, dated 2021).
# Legend:
# human dermal fibroblasts = test: Retinoid-induced fibroblast survival under low-calcium conditions; type: cell-based; details: for protection of fibroblasts from lysis (percentage of initially present cells still viable): 0.1 to 5 μg/mL
# Procedure: Human dermal fibroblasts are isolated from skin biopsies as described previously and grown in monolayer culture using DMEM supplemented with 10% fetal bovine serum as culture medium (see, e.g., Varani J, et al., J Clin Invest. 1994; 94; Varani J, et al., J. Invest. Dermatol. 94:717-723, 1990). Growth is at 37° C. in a humidified atmosphere containing 5% CO2 and 95% air. For experimental studies, cells are plated at 5×10^4 cells per well in wells of a 24-well culture dish in the same culture medium. One day later, cells are washed and the DMEM culture medium is replaced with Keratinocyte Basal Medium (KBM).
# In this assay, low-passage human dermal fibroblasts are grown for three days in Keratinocyte Basal Medium (KBM) at a calcium concentration (0.1 mM) that is too low to support survival. […] How retinoids act to prevent fibroblast lysis is not fully understood, but part of the mechanism involves modulation of calcium transit across the cell membrane in the presence of the active retinoids (see, e.g., Varani J, et al., Am. J. Path. 136:1275-1281, 1990; Varani K, et al., Am J. Pathol. 147:718-729, 1995; Varani J, et al., Amer. J. Pathol. 148: 1307-1312, 1996).
# [1] = tested on: human epidermal keratinocytes; test: Retinoid-induced keratinocyte desquamation (cell-cell detachment, trypsin/EDTA); type: cell-based; details: two days, KBM 1.5 mM calcium
# Procedure: At the end of the incubation period, the cells were exposed to a combination of trypsin and EDTA and the percentage of cells that detached from one another were assessed over time.
# Human epidermal keratinocytes are isolated from the same skin biopsies as fibroblasts and grown in monolayer culture using Keratinocyte Growth Medium (KGM) as described previously (see, e.g., Varani J, et al., J Clin Invest. 1994; Varani J, et al., J. Invest. Dermatol. 94:717-723, 1990; Varani J, et al., J. Invest. Dermatol. 1989; 93:449-454). Growth is at 37° C. in a humidified atmosphere containing 5% CO2 and 95% air. For some studies, experiments use the HaCat line of immortalized human epidermal keratinocytes in place of primary or low-passage cells. Growth for these cells is exactly as with low-passage keratinocytes.
# When keratinocytes are grown in monolayer culture, proliferation is optimal under low-calcium (0.05-0.15 mM) conditions. When the calcium concentration is raised to 1.5 mM, the keratinocyte differentiation occurs and proliferation slows. Under such conditions, strong cell-cell connections are made. […] The end result is that cells separate more easily from one another (see, e.g., Varani J, et al., J. Invest. Dermatol. 1989; 93:449-454; Varani J, et al., J Invest. Dermatol. 97:917-921, 1991; Varani J, et al., Am. Path. 138:887-895, 1991). Retinoid efficacy in acne is dependent, in part at least, on reduced epidermal cohesion and ability of acne lesional skin to slough during washing.
# As a way to quantify detachment, keratinocytes grown for 2 days in culture medium containing 1.5 mM calcium were washed and exposed to a combination of trypsin and EDTA. Cell detachment from neighboring cells was assessed at timed intervals.
# [2] = tested on: normal human skin in organ culture; test: Retinoid-induced skin thickening in human skin organ culture; type: cell-based; details: 1 μg/mL, 8 days organ culture
# Procedure: Human skin biopsies were incubated for 8 days in organ culture. […] At the end of the incubation period, the tissue was fixed for histology and examined at the light microscopy level after staining with hematoxylin and eosin. […] These abnormalities are not seen in the ex. 1—treated skin section.
# Replicate 2-mm punch biopsies (up to 12 per subject) are obtained from hip skin of volunteers 18-70 years of age. The participation of human subjects is approved by the University of Michigan Institutional Review Board and all subjects provide written informed consent prior to their inclusion in the study. The punch biopsies are incubated in wells of a 24 well dish (one tissue piece per 200-500 μL of culture medium). Culture medium consists of KBM. For organ culture, the culture medium is supplemented with calcium chloride to a final calcium concentration of 1.5 mM. One or two wells are typically left as control while the others are treated as desired. Fresh culture medium and treatments are provided at 2-day intervals. Organ culture-conditioned medium collected at day-2 is saved for cytokine assessment or for measure of other bioactive molecules as desired. At the end of the incubation period (typically, day-8), the tissue is fixed in 10% buffered formalin and used for histology. The organ culture protocol used here is virtually identical to that described in several past reports (see, e.g., Varani J, et al., J Clin Invest. 1994; 94:1747-1756; Varani J, et al., Am J Pathol. 1993 January; 142(1):189-98; Lateef H, et al., Am J Pathol. 2004; 165:167-174; Varani J, et al., Exp Mol Pathol. 2004; 77(3):176-83; Varani J, et al., Am J Pathol. 1993 June; 142(6):1813-22; Varani J, et al., Toxicol. Pathol. 35:693-701, 2007; Rittié L, et al., J Invest Dermatol, 126:732-739, 2006).
# [3] = tested on: serum pro-inflammatory cytokines; details: mouse, in vivo
# From the text: Each of the 4 experimental retinoids was made up in DMSO as 0.1% and 0.3% solutions. The material was applied to the treatment area (2 cm^2 area) on a dot marked area on the inter-scapular back) once daily for 7 consecutive days or for 21 consecutive days. The test agent was gently rubbed into the test site after application. As a control, Tretinoin-0.1% was used. […] This is a commonly-prescribed anti-acne medicine. A set amount of the test article, DMSO, DMSO plus test drug, or Tretinoin cream (35 mg) was delivered using a Gilson MICROMAN fully adjustable positive placement pipette.
# Serum was obtained from all mice at the end of the study and evaluated for levels of pro-inflammatory cytokines. For this, the same multiplex ELISA used with human samples was employed except that mouse-recognizing antibodies replaced antibodies used to detect the human counterparts.
# [4] = Rhino mouse topical treatment: spleen size; type: in vivo; details: 0.1% topical, 21 days
# From the text: Mouse skin is rather thinner than human skin, and topically applied drugs tend to get into the circulation more readily when applied to mice, especially the hairless mutants, than to humans.
# [5] = tested on: human skin in organ culture; details: cited from earlier work
smiles,measurement,setting,value
"CC1=C(/C=C/C(C)=C/C=C/C(C)=C/C(=O)O)C(C)(C)CCC1 [ATRA, all-trans retinoic acid, reference compound]",fall-off in cell numbers,"human dermal fibroblasts; 5 μg/mL, low-calcium survival assay",incipient toxicity
same,concentration at which protection was optimal,"human dermal fibroblasts; KBM 0.1 mM calcium, three days",1.0 µg/mL
same,protection of fibroblasts from lysis (percentage of initially present cells still viable),"human dermal fibroblasts; KBM 0.1 mM calcium, three days",capable of protecting fibroblasts from lysis under low-calcium conditions
same,ease of cell-cell separation (percentage of cells detached over time),[1]; 1.0 μg/mL,increased the ease of cell-cell separation as compared to control
same,"epidermal thickening (hyperplastic changes), histology",[2],hyperplastic changes (increased epidermal thickening)
same,"toxicity in the upper epidermis, histology",[2],"evidence of toxicity in the upper epidermis (i.e., incomplete keratinization with loss of granular layer)"
same,IL-1β serum level,[3],low
same,IL-6 serum level,[3],1.55 ± 0.66 pg/mL
same,KC/IL-8 serum level,[3],23 ± 4 pg/mL
same,MCP-1 serum level,[3],158 ^± 43 pg/mL
same,TNF-α serum level,[3],low
same,serum pro-inflammatory cytokine levels compared to control mice (in words),[3],"increase in levels of MCP-1, IL-6 and KC/IL-8"
same,spleen size (splenomegaly),[4],very marked splenomegaly
same,effect on collagen-degrading enzyme MMP-1 (collagenase 1),[5]; human skin organ culture model,"inhibited the major collagen-degrading enzyme (MMP-1, collagenase 1)"
same,procollagen I production,[5]; human skin organ culture model,induced procollagen I production
same,up-regulation of the pro-inflammatory cytokines that underlie retinoid-induced skin irritation,[5]; past studies,"as expected, did"
"CC1=C(/C=C/C(C)=C\C=C\C(C)=C\C(=O)N(C)CC(=O)C(C)(C)C)C(C)(C)CCC1 [Example 1, (2E,4E 6Z,8E)-N-(3,3-dimethyl-2-oxobutyl)-N,3,7-trimethyl-9-(2,6,6-trimethylcyclohex-1-en-1-yl)nona-2,4,6,8-tetraenamide]",protection of fibroblasts from lysis (percentage of initially present cells still viable),"human dermal fibroblasts; KBM 0.1 mM calcium, three days",capable of protecting fibroblasts from lysis under low-calcium conditions
same,protection of fibroblasts from lysis (percentage of initially present cells still viable),"human dermal fibroblasts; KBM 0.1 mM calcium, three days, listed as Compound 1",as effective as ATRA
same,ease of cell-cell separation (percentage of cells detached over time),[1]; 1.0 μg/mL,more potent than ATRA
same,"epidermal thickening (hyperplastic changes), histology",[2],hyperplastic changes (increased epidermal thickening)
same,"toxicity in the upper epidermis, histology",[2],not seen
same,IL-1β serum level,[3],low
same,TNF-α serum level,[3],low
"CC1=C(/C=C/C(C)=C\C=C\C(C)=C\C(=O)N(C)CC(=O)c2ccccc2)C(C)(C)CCC1 [Example 2, (2E,4E 6Z,8E)-N,3,7-trimethyl—N-(2-oxo-2-phenylethyl)-9-(2,6,6-trimethylcyclohex-1-en-1-yl)nona-2,4,6,8-tetraenamide]",protection of fibroblasts from lysis (percentage of initially present cells still viable),"human dermal fibroblasts; KBM 0.1 mM calcium, three days",capable of protecting fibroblasts from lysis under low-calcium conditions
same,ease of cell-cell separation (percentage of cells detached over time),[1]; 2.5 μg/mL,comparable to ATRA at 1 μg/mL
same,IL-1β serum level,[3],low
same,TNF-α serum level,[3],low
